Our source for the MIC values is DBAASP.

Among the test systems are Staphylococcus aureus; Bacillus subtilis; Proteus mirabilis; Micrococcus luteus; Escherichia coli; Salmonella typhimurium; Shigella dysenteriae; Pseudomonas aeruginosa; Klebsiella pneumoniae; Escherichia coli JW0013; Escherichia coli BL21.
What all share (assay): ≥ marks a high value that may be exact or a test limit, other limits are often not marked, values filed in µg/mL are converted to µM
Assay [1] has as its system Candida albicans ATCC 10231.
The subject of assay [2] is Cryptococcus neoformans ATCC 32045.
Assay [3] deals with Escherichia coli ATCC 2592.
Assay [4] has as its system Staphylococcus aureus ATCC 33591.
The subject of assay [5] is Pseudomonas aeruginosa ATCC 10145.
The subject of assay [6] is Staphylococcus epidermidis.
The subject of assay [7] is Pseudomonas aeruginosa PAO1.

In brackets after ≈: the same amount, converted by molar mass.

With `C[C@H](NC(=O)[C@H](CCCCN)NC(=O)[C@H](Cc1ccccc1)NC(=O)[C@H](C)NC(=O)[C@H](CCCCN)NC(=O)[C@H](Cc1ccccc1)NC(=O)[C@H](C)NC(=O)[C@H](CCCCN)NC(=O)[C@H](Cc1ccccc1)NC(=O)[C@H](C)NC(=O)[C@H](CCCCN)NC(=O)[C@H](Cc1ccccc1)NC(=O)[C@H](C)NC(=O)[C@H](CCCCN)NC(=O)[C@H](Cc1ccccc1)NC(=O)[C@H](C)NC(=O)[C@H](CCCCN)NC(=O)[C@H](Cc1ccccc1)NC(=O)[C@H](C)NC(=O)[C@H](CCCCN)NC(=O)[C@@H](N)Cc1ccccc1)C(=O)O` [FKAFKAFKAFKAFKAFKAFKA], the MIC in assay [1] is 145 µM (≈ 354 µg/mL); in [2], 2.32 µM (≈ 5.66 µg/mL); in assay [3], 9.26 µM (≈ 22.6 µg/mL); in assay [4], at least 205 µM; in assay [5] it was 13.1 µM (≈ 32 µg/mL).
As to `CC(C)C[C@H](NC(=O)[C@H](C)NC(=O)CNC(=O)[C@H](CC(C)C)NC(=O)[C@@H](N)Cc1ccccc1)C(=O)N[C@@H](Cc1c[nH]c2ccccc12)C(=O)N[C@@H](CCCCN)C(=O)N[C@H](C(=O)N[C@@H](C)C(=O)N[C@@H](CO)C(=O)N[C@@H](CCCCN)C(=O)O)C(C)C` [FLGALWKVASK], the minimal inhibitory concentration (MIC) is 82 µM (≈ 100 µg/mL) against Staphylococcus aureus; at least 164 µM in assay [6]; at least 164 µM against Bacillus subtilis; at least 164 µM with Proteus mirabilis; at least 164 µM with Micrococcus luteus; 164 µM (≈ 200 µg/mL) against Escherichia coli. The MIC against Salmonella typhimurium is at least 164 µM; against Shigella dysenteriae, at least 164 µM; against Pseudomonas aeruginosa it was over 164 µM; with Klebsiella pneumoniae, 82 µM (≈ 100 µg/mL).
`CC[C@H](C)[C@H](NC(=O)[C@H](CCCN=C(N)N)NC(=O)[C@H](CCCN=C(N)N)NC(=O)[C@@H]1CCCN1C(=O)[C@@H]1CCCN1C(=O)[C@H](CCCN=C(N)N)NC(=O)[C@@H]1CCCN1C(=O)[C@H](CCCN=C(N)N)NC(=O)[C@@H]1CCCN1C(=O)[C@H](CC(C)C)NC(=O)[C@H](Cc1ccc(O)cc1)NC(=O)[C@@H]1CCCN1C(=O)[C@@H]1CCCN1C(=O)[C@H](CCCCN)NC(=O)[C@H](CC(=O)O)NC(=O)[C@@H](N)CCCCN)C(=O)N[C@@H](Cc1ccc(O)cc1)C(=O)N[C@@H](CC(N)=O)C(=O)N[C@@H](CCCN=C(N)N)C(N)=O` [KDKPPYLPRPRPPRRIYNR] registered an MIC with Escherichia coli JW0013 of 1.98 µM (≈ 4.8 µg/mL).
In the case of `C[C@H](NC(=O)[C@H](Cc1ccccc1)NC(=O)[C@H](CCCCN)NC(=O)[C@H](CCCCN)NC(=O)[C@H](C)NC(=O)[C@H](Cc1ccccc1)NC(=O)[C@H](CCCCN)NC(=O)[C@H](CCCCN)NC(=O)[C@H](C)NC(=O)[C@H](Cc1ccccc1)NC(=O)[C@H](CCCCN)NC(=O)[C@H](CCCCN)NC(=O)[C@H](C)NC(=O)[C@H](Cc1ccccc1)NC(=O)[C@H](CCCCN)NC(=O)[C@H](CCCCN)NC(=O)[C@H](C)NC(=O)[C@H](Cc1ccccc1)NC(=O)[C@H](CCCCN)NC(=O)[C@H](CCCCN)NC(=O)[C@H](C)NC(=O)[C@H](Cc1ccccc1)NC(=O)[C@@H](N)CCCCN)C(=O)N[C@@H](CCCCN)C(=O)O` [KFAKKFAKKFAKKFAKKFAKKFAK], the MIC in assay [1] is 34.9 µM (≈ 100 µg/mL); in assay [2], 7.9 µM (≈ 22.6 µg/mL); in assay [3], 3.95 µM (≈ 11.3 µg/mL); in assay [4] it was at least 61.7 µM; in assay [5] it was 5.58 µM (≈ 16 µg/mL).
On the same counts, the results for `C[C@H](NC(=O)[C@H](Cc1ccccc1)NC(=O)[C@H](CCCCN)NC(=O)[C@H](CCCCN)NC(=O)[C@H](C)NC(=O)[C@H](Cc1ccccc1)NC(=O)[C@@H](N)CCCCN)C(=O)N[C@@H](CCCCN)C(=O)O` [KFAKKFAK] are over 258 µM, at least 258 µM, at least 258 µM, at least 258 µM and at least 258 µM.
On the same counts, the results for `CC(C)C[C@H](NC(=O)[C@H](CCCCN)NC(=O)[C@H](CC(C)C)NC(=O)[C@H](CCCCN)NC(=O)[C@H](CC(C)C)NC(=O)[C@H](CCCCN)NC(=O)[C@H](CC(C)C)NC(=O)[C@H](CCCCN)NC(=O)[C@H](CC(C)C)NC(=O)[C@H](CCCCN)NC(=O)[C@H](CC(C)C)NC(=O)[C@H](CCCCN)NC(=O)[C@@H](N)CC(C)C)C(=O)N[C@@H](CCCCN)C(=O)O` [LKLKLKLKLKLKLK] are 207 µM (≈ 354 µg/mL), 1.66 µM (≈ 2.83 µg/mL), 30.9 µM (≈ 52.8 µg/mL), at least 207 µM and at least 73.2 µM.
The matching figures for `CC(C)C[C@H](NC(=O)[C@H](CCCN=C(N)N)NC(=O)[C@H](CC(C)C)NC(=O)[C@H](CCCN=C(N)N)NC(=O)[C@H](CC(C)C)NC(=O)[C@H](CCCN=C(N)N)NC(=O)[C@H](CC(C)C)NC(=O)[C@H](CCCN=C(N)N)NC(=O)[C@H](CC(C)C)NC(=O)[C@H](CCCN=C(N)N)NC(=O)[C@H](CC(C)C)NC(=O)[C@H](CCCN=C(N)N)NC(=O)[C@H](CC(C)C)NC(=O)[C@H](CCCN=C(N)N)NC(=O)[C@H](CC(C)C)NC(=O)[C@H](CCCN=C(N)N)NC(=O)[C@@H](N)CC(C)C)C(=O)N[C@@H](CCCN=C(N)N)C(=O)O` [LRLRLRLRLRLRLRLRLR]: 145 µM (≈ 354 µg/mL), at least 36 µM, at least 51.2 µM, at least 72.4 µM and at least 102 µM.
Turning to `CC[C@H](C)[C@H](NC(=O)[C@H](CCCN=C(N)N)NC(=O)[C@H](CCCN=C(N)N)NC(=O)[C@@H]1CCCN1C(=O)[C@@H]1CCCN1C(=O)[C@H](CCCN=C(N)N)NC(=O)[C@@H]1CCCN1C(=O)[C@H](CCCN=C(N)N)NC(=O)[C@@H]1CCCN1C(=O)[C@H](CC(C)C)NC(=O)[C@H](Cc1ccc(O)cc1)NC(=O)[C@H](CC(N)=O)NC(=O)[C@@H]1CCCN1C(=O)[C@H](CCCCN)NC(=O)[C@H](CC(=O)O)NC(=O)[C@@H](N)C(C)C)C(=O)N[C@@H](Cc1ccc(O)cc1)C(=O)N[C@@H](CC(N)=O)C(=O)N[C@@H](CCCN=C(N)N)C(N)=O` [VDKPNYLPRPRPPRRIYNR], in the assay with Escherichia coli JW0013, the MIC came out at 1.99 µM (≈ 4.8 µg/mL).
Consider `CC[C@H](C)[C@H](NC(=O)[C@H](CCCN=C(N)N)NC(=O)[C@H](CCCN=C(N)N)NC(=O)[C@@H]1CCCN1C(=O)[C@@H]1CCCN1C(=O)[C@H](CCCN=C(N)N)NC(=O)[C@@H]1CCCN1C(=O)[C@H](CCCN=C(N)N)NC(=O)[C@@H]1CCCN1C(=O)[C@H](CC(C)C)NC(=O)[C@H](Cc1ccc(O)cc1)NC(=O)[C@@H]1CCCN1C(=O)[C@H](CCC(N)=O)NC(=O)[C@H](CCCCN)NC(=O)[C@H](CC(=O)O)NC(=O)[C@@H](N)C(C)C)C(=O)N[C@@H](Cc1ccc(O)cc1)C(=O)N[C@@H](CC(N)=O)C(=O)N[C@@H](CCCN=C(N)N)C(N)=O` [VDKQPYLPRPRPPRRIYNR], for which, in the assay with Escherichia coli JW0013, the MIC came to 1.28 µM (≈ 3.1 µg/mL).
Same read-out and setting: the value for `CC[C@H](C)[C@H](NC(=O)[C@H](CCCN=C(N)N)NC(=O)[C@H](CCCN=C(N)N)NC(=O)[C@@H]1CCCN1C(=O)[C@@H]1CCCN1C(=O)[C@H](CCCN=C(N)N)NC(=O)[C@@H]1CCCN1C(=O)[C@H](CCCN=C(N)N)NC(=O)[C@@H]1CCCN1C(=O)[C@H](CCCCN)NC(=O)[C@H](Cc1ccc(O)cc1)NC(=O)[C@H](Cc1cnc[nH]1)NC(=O)[C@H](CCCN=C(N)N)NC(=O)[C@H](CCCCN)NC(=O)[C@H](CC(=O)O)NC(=O)[C@@H](N)C(C)C)C(=O)N[C@@H](Cc1ccc(O)cc1)C(=O)N[C@@H](CC(N)=O)C(=O)N[C@@H](CCCN=C(N)N)C(N)=O` [VDKRHYKPRPRPPRRIYNR] was 0.519 µM (≈ 1.3 µg/mL); that for `CC[C@H](C)[C@H](NC(=O)[C@H](CCCN=C(N)N)NC(=O)[C@H](CCCN=C(N)N)NC(=O)[C@@H]1CCCN1C(=O)[C@@H]1CCCN1C(=O)[C@H](CCCN=C(N)N)NC(=O)[C@@H]1CCCN1C(=O)[C@H](CCCN=C(N)N)NC(=O)[C@@H]1CCCN1C(=O)[C@H](CC(C)C)NC(=O)[C@H](Cc1ccc(O)cc1)NC(=O)[C@H](Cc1cnc[nH]1)NC(=O)[C@H](CCCN=C(N)N)NC(=O)[C@H](CCCCN)NC(=O)[C@H](CC(=O)O)NC(=O)[C@@H](N)C(C)C)C(=O)N[C@@H](Cc1ccc(O)cc1)C(=O)N[C@@H](CC(N)=O)C(=O)N[C@@H](CCCN=C(N)N)C(N)=O` [VDKRHYLPRPRPPRRIYNR] was 0.683 µM (≈ 1.7 µg/mL).
As for `CC[C@H](C)[C@H](NC(=O)[C@H](C)NC(=O)[C@H](Cc1ccccc1)NC(=O)[C@H](CCCCN)NC(=O)[C@@H](N)C(C)C)C(=O)N[C@@H](CCCCN)C(=O)N[C@@H](CCCCN)C(=O)N[C@H](C(=O)NCC(=O)N[C@@H](CCCCN)C(=O)N[C@@H](CCCCN)C(=O)N[C@@H](C)C(=O)N[C@@H](C)C(=O)N[C@@H](CCCCN)C(=O)N[C@@H](CCCCN)C(=O)N[C@H](C(=O)N[C@H](C(=O)N[C@H](C(=O)N[C@@H](CCCCN)C(=O)N[C@@H](C)C(=O)O)C(C)C)[C@@H](C)CC)C(C)C)[C@@H](C)CC` [VKFAIKKIGKKAAKKVIVKA], the minimum inhibitory concentration (MIC) was 32 µM (≈ 69.4 µg/mL) in [7] and at least 128 µM with Escherichia coli BL21.
